Source: patent US6417187B2, “1,2,4-triazole based compounds that can be used as insecticides or acaricides and processes” (Dow AgroSciences LLC, priority 2000, dated 2002)

Tests used:
Type in all cases: in vivo
[1] = tested on: cabbage looper (Trichoplusia ni); test: Insecticidal test for cabbage looper (cabbage leaf-disc dip); conditions: 400 ppm, cabbage leaf-dip, 2nd instar larvae, 5 days; for pest or weed control at 400 ppm: Trichoplusia ni, 120 h, read-out: CL: activity at 400 ppm against cabbage looper (% Control rating)
[2] = tested on: Sweetpotato Whitefly (Bemisia tabacia); test: Insecticidal test for Sweetpotato Whitefly (cotton plant spray); conditions: 200 ppm spray on cotton plants, 13 days, reduction of large nymphs; for pest or weed control at 200 ppm: Bemisia, 312 h, read-out: WF: activity at 200 ppm against whitefly (% Control rating)
[3] = tested on: beet armyworm (Spodoptera exigua); test: Insecticidal test for beet armyworm (treated lepidopteran diet); conditions: 400 ppm, treated diet, second-instar larvae, 5 days; for pest or weed control at 400 ppm: Spodoptera exigua, 120 h, read-out: BAW: activity at 400 ppm against beet armyworm (% Control rating)
[4] = tested on: cotton aphid (Aphis gossvpii); test: Insecticidal test for cotton aphid (squash cotyledon spray); conditions: 50 ppm spray on infested squash cotyledons, 3 days, population reduction versus untreated; for pest or weed control at 50 ppm: 72 h, read-out: CA: activity at 50 ppm against cotton aphid (% Control rating)
[5] = tested on: Green Leafhopper (Nephotettix cincticeps); test: Insecticidal test for Green Leafhopper (rice seedling roots in test solution); conditions: 10 ppm test solution, rice seedling roots, 3rd instar nymphs, mortality at 6 days
[6] = tested on: Brown Planthopper (Nilaparvata lugens); test: Insecticidal test for Brown Planthopper (rice seedling roots in test solution); conditions: 10 ppm test solution, rice seedling roots, 3rd instar nymphs, mortality at 6 days

Cn1nc(-c2c(F)cccc2Cl)nc1-c1sc(C#Cc2ccc(F)cc2F)c(Cl)c1Cl [Compound 23, 3-(2-chloro-6-fluorophenyl)-5-(5-(2,4-difluorophenylalkynyl)-3,4-dichloro-2-thiophene)-1-methyl-1H-1,2,4-triazole]
pest or weed control at 400 ppm [1]: 90 to 100% | pest or weed control at 200 ppm [2]: < 50% | pest or weed control at 400 ppm [3]: 90 to 100% | pest or weed control at 50 ppm [4]: < 50% | GLH: activity at 10 ppm against green leafbopper (% Control rating) [5]: F (less than 50)

COc1ccc(C#Cc2sc(-c3nc(-c4c(F)cccc4Cl)nn3C)c(Cl)c2Cl)cc1Cl [Compound 48]
CL: activity at 400 ppm against cabbage looper (% Control rating) [1]: A (90-100) | BAW: activity at 400 ppm against beet armyworm (% Control rating) [3]: A (90-100) | BPH: activity at 10 ppm against brown planthopper (% Control rating) [6]: F (less than 50) | CA: activity at 50 ppm against cotton aphid (% Control rating) [4]: D (60-69)

Cn1nc(-c2c(F)cccc2Cl)nc1-c1sc(C#Cc2cc(Cl)c(OCC(F)(F)F)c(Cl)c2)c(Cl)c1Cl [Compound 22]
WF: activity at 200 ppm against whitefly (% Control rating) [2]: D (60-69) | BPH: activity at 10 ppm against brown planthopper (% Control rating) [6]: F (less than 50) | CA: activity at 50 ppm against cotton aphid (% Control rating) [4]: F (less than 50) | GLH: activity at 10 ppm against green leafbopper (% Control rating) [5]: F (less than 50)

Cn1nc(-c2ccccc2F)nc1-c1sc(C#Cc2ccc(F)cc2)c(Cl)c1Cl [Compound 79]
WF: activity at 200 ppm against whitefly (% Control rating) [2]: D (60-69) | BPH: activity at 10 ppm against brown planthopper (% Control rating) [6]: F (less than 50) | CA: activity at 50 ppm against cotton aphid (% Control rating) [4]: F (less than 50) | GLH: activity at 10 ppm against green leafbopper (% Control rating) [5]: F (less than 50)

CCCCn1nc(-c2c(F)cccc2Cl)nc1-c1sc(C#Cc2ccc(CCC)cc2)c(Cl)c1Cl [Compound 82]
CL: activity at 400 ppm against cabbage looper (% Control rating) [1]: A (90-100) | WF: activity at 200 ppm against whitefly (% Control rating) [2]: F (less than 50) | BAW: activity at 400 ppm against beet armyworm (% Control rating) [3]: D (60-69) | CA: activity at 50 ppm against cotton aphid (% Control rating) [4]: F (less than 50)

Cn1nc(-c2c(F)cccc2Cl)nc1-c1sc(C#Cc2ccsc2)c(Cl)c1Cl [Compound 46]
CL: activity at 400 ppm against cabbage looper (% Control rating) [1]: D (60-69) | WF: activity at 200 ppm against whitefly (% Control rating) [2]: F (less than 50) | BAW: activity at 400 ppm against beet armyworm (% Control rating) [3]: D (60-69) | BPH: activity at 10 ppm against brown planthopper (% Control rating) [6]: F (less than 50) | CA: activity at 50 ppm against cotton aphid (% Control rating) [4]: E (50-59)

Cn1nc(-c2c(F)cccc2Cl)nc1-c1sc(C#Cc2cnc(N3CCOCC3)nc2)c(Cl)c1Cl [Compound 63]
CL: activity at 400 ppm against cabbage looper (% Control rating) [1]: A (90-100) | WF: activity at 200 ppm against whitefly (% Control rating) [2]: F (less than 50) | BAW: activity at 400 ppm against beet armyworm (% Control rating) [3]: D (60-69)

Cn1nc(-c2c(F)cccc2Cl)nc1-c1sc(C#Cc2ccc(C(F)(F)F)cn2)c(Cl)c1Cl [Compound 62]
WF: activity at 200 ppm against whitefly (% Control rating) [2]: F (less than 50) | BPH: activity at 10 ppm against brown planthopper (% Control rating) [6]: F (less than 50) | CA: activity at 50 ppm against cotton aphid (% Control rating) [4]: F (less than 50) | GLH: activity at 10 ppm against green leafbopper (% Control rating) [5]: F (less than 50)

CCC#Cc1sc(-c2nc(-c3c(F)cccc3Cl)nn2C)c(Cl)c1Cl [Compound 5]
pest or weed control at 200 ppm [2]: < 50% | BPH: activity at 10 ppm against brown planthopper (% Control rating) [6]: F (less than 50) | pest or weed control at 50 ppm [4]: 80 to 89% | GLH: activity at 10 ppm against green leafbopper (% Control rating) [5]: F (less than 50)

C#Cc1sc(-c2nc(-c3c(F)cccc3Cl)nn2C)c(Cl)c1Cl [Compound 2, 1-Methyl-3-(2-chloro-6-fluorophenyl)-5-(3,4-dichloro-5-ethynvl-thien-2-yl)[1,2,4]triazole]
pest or weed control at 400 ppm [1]: < 50% | BPH: activity at 10 ppm against brown planthopper (% Control rating) [6]: D (60-69) | pest or weed control at 50 ppm [4]: 60 to 69% | GLH: activity at 10 ppm against green leafbopper (% Control rating) [5]: F (less than 50)

Cn1nc(-c2c(F)cccc2Cl)nc1-c1sc(C#Cc2ccc(Br)cc2OC(F)(F)F)c(Cl)c1Cl [Compound 59]
WF: activity at 200 ppm against whitefly (% Control rating) [2]: F (less than 50) | BPH: activity at 10 ppm against brown planthopper (% Control rating) [6]: F (less than 50) | CA: activity at 50 ppm against cotton aphid (% Control rating) [4]: F (less than 50) | GLH: activity at 10 ppm against green leafbopper (% Control rating) [5]: F (less than 50)

CCOc1ccc(C#Cc2sc(-c3nc(-c4c(F)cccc4Cl)nn3C)c(Cl)c2Cl)cc1F [Compound 60]
CL: activity at 400 ppm against cabbage looper (% Control rating) [1]: A (90-100) | WF: activity at 200 ppm against whitefly (% Control rating) [2]: E (50-59) | BAW: activity at 400 ppm against beet armyworm (% Control rating) [3]: A (90-100) | CA: activity at 50 ppm against cotton aphid (% Control rating) [4]: F (less than 50)

Cn1nc(-c2c(F)cccc2Cl)nc1-c1sc(C#Cc2cnc(N3CCCCC3)nc2)c(Cl)c1Cl [Compound 64]
CL: activity at 400 ppm against cabbage looper (% Control rating) [1]: A (90-100) | WF: activity at 200 ppm against whitefly (% Control rating) [2]: F (less than 50) | BAW: activity at 400 ppm against beet armyworm (% Control rating) [3]: B (80-89)

Cc1ccc(C#Cc2sc(-c3nc(-c4c(F)cccc4Cl)nn3C)c(Cl)c2Cl)nc1 [Compound 58]
WF: activity at 200 ppm against whitefly (% Control rating) [2]: F (less than 50) | BPH: activity at 10 ppm against brown planthopper (% Control rating) [6]: F (less than 50) | CA: activity at 50 ppm against cotton aphid (% Control rating) [4]: F (less than 50) | GLH: activity at 10 ppm against green leafbopper (% Control rating) [5]: F (less than 50)

CCCc1ccc(C#Cc2sc(-c3nc(C)nn3C)c(Cl)c2Cl)cc1 [Compound 75]
WF: activity at 200 ppm against whitefly (% Control rating) [2]: F (less than 50) | BPH: activity at 10 ppm against brown planthopper (% Control rating) [6]: C (70-79) | CA: activity at 50 ppm against cotton aphid (% Control rating) [4]: F (less than 50) | GLH: activity at 10 ppm against green leafbopper (% Control rating) [5]: F (less than 50)

Cc1nc(-c2sc(C#Cc3ccc(F)cc3)c(Cl)c2Cl)n(C)n1 [Compound 78]
pest or weed control at 200 ppm [2]: 60 to 69% | pest or weed control at 400 ppm [3]: 90 to 100% | BPH: activity at 10 ppm against brown planthopper (% Control rating) [6]: F (less than 50) | pest or weed control at 50 ppm [4]: < 50% | GLH: activity at 10 ppm against green leafbopper (% Control rating) [5]: F (less than 50)

Cn1nc(-c2c(F)cccc2Cl)nc1-c1sc(C#Cc2ccc(Cl)cn2)c(Cl)c1Cl [Compound 61]
WF: activity at 200 ppm against whitefly (% Control rating) [2]: F (less than 50) | BPH: activity at 10 ppm against brown planthopper (% Control rating) [6]: F (less than 50) | CA: activity at 50 ppm against cotton aphid (% Control rating) [4]: F (less than 50) | GLH: activity at 10 ppm against green leafbopper (% Control rating) [5]: F (less than 50)

Cc1ccsc1C#Cc1sc(-c2nc(-c3c(F)cccc3Cl)nn2C)c(Cl)c1Cl [Compound 36]
CL: activity at 400 ppm against cabbage looper (% Control rating) [1]: A (90-100) | WF: activity at 200 ppm against whitefly (% Control rating) [2]: F (less than 50) | BPH: activity at 10 ppm against brown planthopper (% Control rating) [6]: D (60-69) | CA: activity at 50 ppm against cotton aphid (% Control rating) [4]: E (50-59) | GLH: activity at 10 ppm against green leafbopper (% Control rating) [5]: D (60-69)

Cc1cccnc1C#Cc1sc(-c2nc(-c3c(F)cccc3Cl)nn2C)c(Cl)c1Cl [Compound 45]
WF: activity at 200 ppm against whitefly (% Control rating) [2]: F (less than 50) | BPH: activity at 10 ppm against brown planthopper (% Control rating) [6]: F (less than 50) | CA: activity at 50 ppm against cotton aphid (% Control rating) [4]: F (less than 50) | GLH: activity at 10 ppm against green leafbopper (% Control rating) [5]: F (less than 50)

Cn1nc(-c2c(F)cccc2Cl)nc1-c1sc(C#Cc2ccccn2)c(Cl)c1Cl [Compound 33]
WF: activity at 200 ppm against whitefly (% Control rating) [2]: D (60-69) | BPH: activity at 10 ppm against brown planthopper (% Control rating) [6]: F (less than 50) | CA: activity at 50 ppm against cotton aphid (% Control rating) [4]: F (less than 50) | GLH: activity at 10 ppm against green leafbopper (% Control rating) [5]: F (less than 50)

CCCc1ccc(C#Cc2sc(-c3nc(-c4ccccc4F)nn3C)c(Cl)c2Cl)cc1 [Compound 76]
WF: activity at 200 ppm against whitefly (% Control rating) [2]: F (less than 50) | BAW: activity at 400 ppm against beet armyworm (% Control rating) [3]: A (90-100) | BPH: activity at 10 ppm against brown planthopper (% Control rating) [6]: F (less than 50) | GLH: activity at 10 ppm against green leafbopper (% Control rating) [5]: F (less than 50)
